Source: PubChem BioAssay (NCI)
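Five concentrations, 48 hours, 96-well plates. TGI: total growth inhibition.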

Tests used:
Assay in all cases: DTP human tumour cell line panel, 48 h
[1] = tested on: BT-549 breast
[2] = tested on: HS 578T breast
[3] = tested on: MDA-MB-435
[4] = tested on: SNB-75 CNS
[5] = tested on: HOP-18 NSCLC
[6] = tested on: RXF-631 renal
[7] = tested on: SNB-78 CNS
[8] = tested on: XF 498 CNS

Measured: TGI

CC1OC1C(=O)P(=O)(O)O (configuration not stated)
> 100 µM: [1] | [2] | [3] | [4]

CCOC(=O)c1ccc(N2C(=O)/C(=C/c3ccc(N(CCC#N)CCC#N)cc3)N=C2c2cc([N+](=O)[O-])ccc2Cl)cc1
> 100 µM: [5] | [6] | [7]

Cc1ccccc1NC(=O)C(=O)C(C1OC(=O)c2ccccc21)[N+](=O)[O-] (configuration not stated)
> 100 µM: [4] | [7] | [8]

NCC(=O)N[C@H]1c2ccsc2/C(=N/O)[C@H]1O
> 100 µM: [1] | [3]
